In publication PMC11024869, “The activity of antimicrobial peptoids against multidrug-resistant ocular pathogens” (Contact lens & anterior eye : the journal of the British …, 2024):
In brackets after ≈: the same amount, converted by molar mass. Non-standard residues stand in square brackets, D forms with d. Residues, ends and D or L forms follow the SMILES beside them. Nspe = C[C@H](NCC(=O)O)c1ccccc1; Nlys = NCCCCNCC(=O)O

Key:
Type in all cases: cell-based
[1] = test system: Pseudomonas aeruginosa PAO1; details: PAO1, MHB
Text: (§3) The S. pneumoniae strains used were SP04, SP06 and SP07 [46] and Streptococcus gallolyticus SV06 (all isolated from eyes of contact lens wearers during adverse events); P. aeruginosa PAO1 (which was originally isolated from a wound, and is an invasive strain containing the gene exoS) as well as isolates from microbial keratitis, PA 235 (invasive strain containing exoS), PA216 (a cytotoxic strain containing exoU), PA219 (cytotoxic strain containing exoU), PA 233 (cytotoxic strain containing exoU), with various susceptibilities to antibiotics were also used [14]. C. albicans ATCC 10231, a yeast, isolated from case of a human bronchomycosis, was also evaluated.
(§4) The peptoids’ minimum inhibitory and bactericidal concentrations (MIC and MBC) were determined using micro broth dilution methods as previously described with slight modifications, [26, 39, 49, 50], and without using acetic acid and bovine serum albumin [39]. Briefly, bacteria or yeast were suspended in Muller Hinton broth (MHB, Oxoid, Thermo Fisher Scientific, Thebarton, SA, Australia) at 0.1 OD660nm, which was equivalent to 1x10^8 colony forming units (CFU) mL^−1. This suspension was further diluted to achieve 5x10^6 CFU mL^−1. The peptoids were diluted in MHB from 250 to 0.24 μg mL^−1 in 96-well polystyrene microplates (COSTAR, Corning Incorporated, New York, NY, USA) [39]. […] This was followed by addition of 100 μL of each microbial suspensions. Wells with only bacteria or the yeast were treated as a negative control, and wells with only MHB medium were treated as a blank. The plates were incubated at 37 °C with shaking at 120 rpm for 24 h. After incubation, the media in each well was serially diluted in phosphate buffered solution and then inoculated onto tryptone soya agar (Oxoid) plates for bacteria, or Sabouraud’s dextrose agar for the yeast, and incubated at 37 °C for 18 hrs. Post incubation, the number of CFUs on the agar plates was counted.

[2] = test system: Pseudomonas aeruginosa PA216; details: PA216, MHB, 24 h 37 °C
Text: as §3, §4

[3] = test system: Pseudomonas aeruginosa PA219; details: PA219, MHB, 24 h 37 °C
Text: as §3, §4

[4] = test system: Pseudomonas aeruginosa PA233; details: PA233, MHB, 24 h 37 °C
Text: All S. aureus strains used were isolated from cases of microbial keratitis (Table 1) with various susceptibilities to antibiotics. The S. pneumoniae strains used were SP04, SP06 and SP07 [46] and Streptococcus gallolyticus SV06 (all isolated from eyes of contact lens wearers during adverse events); P. aeruginosa PAO1 (which was originally isolated from a wound, and is an invasive strain containing the gene exoS) as well as isolates from microbial keratitis, PA 235 (invasive strain containing exoS), PA216 (a cytotoxic strain containing exoU), PA219 (cytotoxic strain containing exoU), PA 233 (cytotoxic strain containing exoU), with various susceptibilities to antibiotics were also used. C. albicans ATCC 10231, a yeast, isolated from case of a human bronchomycosis, was also evaluated.
The peptoids’ minimum inhibitory and bactericidal concentrations (MIC and MBC) were determined using micro broth dilution methods as previously described with slight modifications, [26, 39, 49, 50], and without using acetic acid and bovine serum albumin [39]. Briefly, bacteria or yeast were suspended in Muller Hinton broth (MHB, Oxoid, Thermo Fisher Scientific, Thebarton, SA, Australia) at 0.1 OD660nm, which was equivalent to 1x10^8 colony forming units (CFU) mL^−1. This suspension was further diluted to achieve 5x10^6 CFU mL^−1. The peptoids were diluted in MHB from 250 to 0.24 μg mL^−1 in 96-well polystyrene microplates (COSTAR, Corning Incorporated, New York, NY, USA). This range was selected to cover the range of MIC values previously reported for ESKAPE pathogens. This was followed by addition of 100 μL of each microbial suspensions. Wells with only bacteria or the yeast were treated as a negative control, and wells with only MHB medium were treated as a blank. The plates were incubated at 37 °C with shaking at 120 rpm for 24 h. After incubation, the media in each well was serially diluted in phosphate buffered solution and then inoculated onto tryptone soya agar (Oxoid) plates for bacteria, or Sabouraud’s dextrose agar for the yeast, and incubated at 37 °C for 18 hrs. Post incubation, the number of CFUs on the agar plates was counted.

[5] = test system: Pseudomonas aeruginosa PA235; details: PA235; MHB, 24 h 37 °C; ≥99.99 % reduction in CFUs
Text: as §3, §4

[6] = test system: Staphylococcus aureus SA34; details: SA34, MHB, 24 h 37 °C
Text: as §3, §4

[7] = test system: Staphylococcus aureus SA65; details: SA65, MHB, 24 h 37 °C
Text: as §3, §4

[8] = test system: Staphylococcus aureus SA113; details: SA113, MHB, 24 h 37 °C
Text: as §3, §4

[9] = test system: Staphylococcus aureus SA114; details: SA114, MHB, 24 h 37 °C
Text: as §3, §4

[10] = test system: Staphylococcus aureus SA117; details: SA117, MHB, 24 h 37 °C
Text: as §3, §4

[11] = test system: Streptococcus pneumoniae SP04; details: SP04, MHB, 24 h 37 °C
Text: as §3, §4

[12] = test system: Streptococcus pneumoniae SP06; details: SP06, MHB, 24 h 37 °C
Text: as §3, §4

[13] = test system: Streptococcus pneumoniae SP07; details: SP07, MHB, 24 h 37 °C
Text: as §3, §4

[14] = test system: Streptococcus gallolyticus SG04; details: SG04, MHB, 24 h 37 °C
Text: as §3, §4

[15] = test system: viridans group streptococcus SV06; details: SV06, MHB, 24 h 37 °C
Text: as §3, §4

[16] = test system: Candida albicans ATCC 10231; assay: MIC/MBC (fungicidal) micro broth dilution; details: ATCC 10231 (yeast); MHB, 24 h 37 °C; ≥99.99 % reduction in CFUs
Text: as §3, §4

[17] = test system: horse erythrocytes; assay: In vitro assay for hemolysis, horse blood
Experimental: (§1) Hemolysis caused by the peptoids was measured using 18 to 20 mL of a horse or human blood collected in EDTA-coated tubes which has been centrifuged at 500×g for 5 min. The supernatant was discarded and the pellet containing the cells were resuspended in PBS to a final volume of 20 mL. This step was repeated five times. After the final wash, the pellet was resuspended in PBS at the ratio of 1:10 (1 mL red blood cell: 9 mL PBS) to yield a final red blood cell (RBC) concentration of approximately 5 × 10^8 cells mL^−1. The concentration of RBCs was confirmed using a hemocytometer. The peptoids (stock concentration 2 mM) were diluted sequentially (two-fold dilutions) in PBS to final concentrations of […]. All the dilutions were subsequently mixed with the RBC suspension at the ratio of 1:1. MilliQ water was used as a positive control and PBS was used as a negative control in this assay. All samples were incubated at 37 °C for 3 h. Following incubation, the tubes were centrifuged at 500 x g for five mins, the supernatants were collected, transferred to wells in a 96 well plate and their optical density was measured at 540 nm. The percentage of hemolysis was calculated by dividing the absorbance of the test sample by the absorbance of the positive control, and multiplying by 100. Data are presented as the hemolysis caused by each dilution of peptoid, and as the concentration of peptoid that caused 10 % or 50 % lysis of red blood cells.
(§2) The geometric mean is the nth root of the multiplied numbers, where n is the total number of data values. A similar formula was used to calculate the selectivity ratio, but by using the concentration of peptoid that caused 10 % hemolysis.

[18] = test system: human erythrocytes; assay: In vitro assay for hemolysis, human blood
Experimental: as §1, §2

For `C[C@@H](c1ccccc1)N(CC(N)=O)C(=O)CN(C(=O)CN(CCCCN)C(=O)CN(C(=O)CN(C(=O)CN(CCCCN)C(=O)CN(C(=O)CN(C(=O)CN(CCCCN)C(=O)CN(C(=O)CN(C(=O)CNCCCCN)[C@@H](C)c1ccccc1)[C@@H](C)c1ccccc1)[C@@H](C)c1ccccc1)[C@@H](C)c1ccccc1)[C@@H](C)c1ccccc1)[C@@H](C)c1ccccc1)[C@@H](C)c1ccccc1` [TM1] (H-[Nlys][Nspe][Nspe][Nlys][Nspe][Nspe][Nlys][Nspe][Nspe][Nlys][Nspe][Nspe]-NH2), the MIC ([1]; 5x10^6 CFU mL^−1, 24 h 37 °C, ≥90 % reduction in CFUs) was 7.8 µg/mL (≈ 4.29 µM), the MBC ([1]; 24 h 37 °C, ≥99.99 % reduction in CFUs) was 15 µg/mL (≈ 8.24 µM) and the MIC ([2]; ≥90 % reduction in CFUs) was 15 µg/mL (≈ 8.24 µM). The MBC ([2]; ≥99.99 % reduction in CFUs) was 31 µg/mL (≈ 17 µM), the MIC ([3]; ≥90 % reduction in CFUs) was 15 µg/mL (≈ 8.24 µM) and the MBC ([3]; ≥99.99 % reduction in CFUs) was 31 µg/mL (≈ 17 µM). For the same compound, the MIC ([4]; ≥90 % reduction in CFUs) was 15(8.6)/15(8.6) μg mL^−1, the MBC ([4]; ≥99.99 % reduction in CFUs) was 15(8.6)/15(8.6) μg mL^−1 and the MBC [5] was 31(17)/31(17) μg mL^−1. For the same compound, the MIC ([6]; ≥90 % reduction in CFUs) was 7.8 µg/mL (≈ 4.29 µM), the MBC ([6]; ≥99.99 % reduction in CFUs) was 15 µg/mL (≈ 8.24 µM) and the MIC ([7]; ≥90 % reduction in CFUs) was 3.9(2.2)/3.9(2.2) μg mL^−1. For the same compound, the MBC ([7]; ≥99.99 % reduction in CFUs) was 3.9(2.2)/3.9(2.2) μg mL^−1, the MIC ([8]; ≥90 % reduction in CFUs) was 3.9 µg/mL (≈ 2.14 µM) and the MBC ([8]; ≥99.99 % reduction in CFUs) was 7.8 µg/mL (≈ 4.29 µM). For the same compound, the MIC ([9]; ≥90 % reduction in CFUs) was 7.8(4.3)/7.8(4.3) μg mL^−1, the MBC ([9]; ≥99.99 % reduction in CFUs) was 7.8(4.3)/7.8(4.3) μg mL^−1 and the MIC ([10]; ≥90 % reduction in CFUs) was 7.8 µg/mL (≈ 4.29 µM). The MBC ([10]; ≥99.99 % reduction in CFUs) was 15 µg/mL (≈ 8.24 µM), the MIC ([11]; ≥90 % reduction in CFUs) was 1.9(1.1)/1.9(1.1) μg mL^−1 and the MBC ([11]; ≥99.99 % reduction in CFUs) was 1.9(1.1)/1.9(1.1) μg mL^−1. For the same compound, the MIC ([12]; ≥90 % reduction in CFUs) was 3.9 µg/mL (≈ 2.14 µM), the MBC ([12]; ≥99.99 % reduction in CFUs) was 7.8 µg/mL (≈ 4.29 µM) and the MIC ([13]; ≥90 % reduction in CFUs) was 15(8.6)/15(8.6) μg mL^−1. The MBC ([13]; ≥99.99 % reduction in CFUs) was 15(8.6)/15(8.6) μg mL^−1, the MIC ([14]; ≥90 % reduction in CFUs) was 3.9 µg/mL (≈ 2.14 µM) and the MBC ([14]; ≥99.99 % reduction in CFUs) was 7.8 µg/mL (≈ 4.29 µM). For the same compound, the MIC ([15]; ≥90 % reduction in CFUs) was 3.9 µg/mL (≈ 2.14 µM), the MBC ([15]; ≥99.99 % reduction in CFUs) was 7.8 µg/mL (≈ 4.29 µM) and the “MBC (minimum fungicidal concentration)” value [16] was 3.9(2.2)/3.9(2.2) μg mL^−1. For the same compound, the “Horse HC10” value ([17]; concentration causing 10 % lysis of horse red blood cells, PBS, 3 h 37 °C, OD 540 nm) was 4 µM, the “Horse HC50” value ([17]; concentration causing 50 % lysis of horse red blood cells, PBS, 3 h 37 °C, OD 540 nm) was 45 µM and the “SR horse blood (ratio HC10 to geometric mean MIC)” value ([17]; selectivity ratio) was 1. For the same compound, the “TI horse blood (ratio HC50 to geometric mean MIC)” value ([17]; therapeutic index) was 11, the “Human HC10” value ([18]; concentration causing 10 % lysis of human red blood cells, PBS, 3 h 37 °C, OD 540 nm) was 8 µM and the “Human HC50” value ([18]; concentration causing 50 % lysis of human red blood cells, PBS, 3 h 37 °C, OD 540 nm) was 49 µM. The “SR human blood (ratio HC10 to geometric mean MIC)” value ([18]; selectivity ratio) was 2 and the “TI human blood (ratio HC50 to geometric mean MIC)” value ([18]; therapeutic index) was 12.
